# Experimental data as given in patent publication US20250197407A1 (Jazz Pharmaceuticals Ireland Limited, priority 2022, published 2025).
# Molecular target: SOS1/KRAS WT (Homo sapiens (Human), UniProt Q07889)
# Experiment: SOS1/KRAS WT HTRF binding assay (FRET-based protein-protein interaction)
# Conditions: inhibition of His6-SOS1 (aa564-1049, 40 nM) binding to GST-KRAS-WT (aa1-188, 40 nM); at least two independent replicates
# Outline: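 Time-resolved FRET at 665 nm, read 4 hr after adding anti-GST-Eu(K) (4 nM) and anti-6His-XL665 (20 nM), tracked SOS1(aa564-1049)–KRAS WT(aa1-188) association. Both proteins were at 40 nM, pre-incubated 60 min at room temperature with compound. Max/min signals came from 0.05% DMSO and 10 μM reference, with four-parameter logistic IC50.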
# SOS1/KRAS WT, sequence (Q07889 564-1049): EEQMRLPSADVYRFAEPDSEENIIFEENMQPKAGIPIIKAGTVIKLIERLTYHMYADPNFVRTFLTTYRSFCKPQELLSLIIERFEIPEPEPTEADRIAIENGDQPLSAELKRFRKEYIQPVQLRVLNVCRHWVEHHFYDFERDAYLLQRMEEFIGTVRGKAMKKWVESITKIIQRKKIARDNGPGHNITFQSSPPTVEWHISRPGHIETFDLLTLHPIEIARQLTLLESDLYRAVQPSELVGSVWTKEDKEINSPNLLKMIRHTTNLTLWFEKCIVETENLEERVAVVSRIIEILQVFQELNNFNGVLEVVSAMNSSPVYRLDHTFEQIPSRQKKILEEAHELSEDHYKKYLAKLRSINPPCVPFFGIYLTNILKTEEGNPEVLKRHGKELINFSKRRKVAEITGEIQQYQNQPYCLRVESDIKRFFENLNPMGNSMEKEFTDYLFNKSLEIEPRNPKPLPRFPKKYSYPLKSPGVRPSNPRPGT
row,SOS1/KRAS WT HTRF Binding assay pIC50,SMILES
1,7.75,"COCC1(C)C(=O)N(C)c2cc3c(N[C@H](C)c4cccc(C(F)(F)C(C)(C)O)c4)nnc(C)c3cc21 (stereo partly drawn) [Compound 91, D8-[[(1R)-1-[3-(1,1-difluoro-2-hydroxy-2-methyl-propyl)phenyl]ethyl]amino]-3-(methoxymethyl)-1,3,5-trimethyl-pyrrolo[3,2-g]phthalazin-2-one]"

# Same assay, conditions: inhibition of His6-SOS1 (aa564-1049, 40 nM) binding to GST-KRAS-WT (aa1-188, 40 nM); at least two independent replicates; read-out: SOS1/KRAS WT HTRF Binding assay pIC50 (converted)
row,SMILES,IC50
1,"COCC1(C)C(=O)N(C)c2cc3c(N[C@H](C)c4cccc(C(F)(F)C(C)(C)O)c4F)nnc(C)c3cc21 (stereo partly drawn) [Compound 86, D8-[[(1R)-1-[3-(1,1-difluoro-2-hydroxy-2-methyl-propyl)-2-fluoro-phenyl]ethyl]amino]-3-(methoxymethyl)-1,3,5-trimethyl-pyrrolo[3,2-g]phthalazin-2-one]",10.2 nM
2,"Cc1nnc(N[C@H](C)c2cccc(C(F)(F)C(C)(C)O)c2)c2cc3c(cc12)n(C)c(=O)n3C(C)C [Compound 87, 3-isopropyl-1,8-dimethyl-5-[[(1R)-1-[3-(1,1-difluoro-2-hydroxy-2-methyl-propyl)phenyl]ethyl]amino]imidazo [4,5-g]phthalazin-2-one]",8.51 nM
3,"Cc1nnc(N[C@H](C)c2cccc(C(F)(F)CO)c2F)c2cc3c(cc12)C1(CCOCC1)C(=O)N3C [Compound 89, 1,5-dimethyl-8-[[(1R)-1-[3-(1,1-difluoro-2-hydroxy-ethyl)-2-fluoro-phenyl]ethyl]amino]spiro[pyrrolo [2,3-g]phthalazine-3,4′-tetrahydropyran]-2-one]",8.13 nM
4,"COC1(C)C(=O)N(C)c2cc3c(N[C@H](C)c4cccc(C(F)(F)CO)c4F)nnc(C)c3cc21 (stereo partly drawn) [Compound 93, 3-methoxy-1,3,5-trimethyl-8-[[(1R)-1-[3-(1,1-difluoro-2-hydroxy-ethyl)-2-fluoro-phenyl]ethyl]amino]pyrrolo[2,3-g]phthalazin-2-one]",7.41 nM
5,"Cc1nnc(N[C@H](C)c2cccc(C(F)(F)CO)c2)c2cc3c(cc12)N(C)C(=O)C3(C)C [Compound 95, 1,3,3,8-tetramethyl-5-[[(1R)-1-[3-(1,1-difluoro-2-hydroxy-ethyl)phenyl]ethyl]amino]pyrrolo [3,2-g]phthalazin-2-one]",7.41 nM
6,"Cc1nnc(N[C@H](C)c2cccc(C(F)(F)C(C)(C)O)c2)c2cc3c(cc12)N(C)C(=O)C3(C)C [Compound 96, 1,3,3,8-tetramethyl-5-[[(1R)-1-[3-(1,1-difluoro-2-hydroxy-2-methyl-propyl)phenyl]ethyl]amino]pyrrolo [3,2-g]phthalazin-2-one]",13.5 nM
7,"Cc1nnc(N[C@H](C)c2cccc(C(F)(F)C(C)(C)O)c2F)c2cc3c(cc12)N(C)C(=O)C3(C)C [Compound 98, 1,3,3,8-tetramethyl-5-[[(1R)-1-[3-(1,1-difluoro-2-hydroxy-2-methyl-propyl)-2-fluoro-phenyl]ethyl]amino]pyrrolo[3,2-g]phthalazin-2-one]",12 nM
8,"Cc1c([C@@H](C)Nc2nnc(C)c3cc4c(cc23)n(C(C)(C)C)c(=O)n4C)cccc1C(F)(F)CO [Compound 100, 3-tert-butyl-1,8-dimethyl-5-[[(1R)-1-[3-(1,1-difluoro-2-hydroxy-ethyl)-2-methyl-phenyl]ethyl]amino]imidazo[4,5-g]phthalazin-2-one]",10 nM
9,"COC1(C)C(=O)N(C)c2cc3c(N[C@H](C)c4cccc(C(F)(F)CO)c4)nnc(C)c3cc21 (stereo partly drawn) [Compound 101, 3-methoxy-1,3,5-trimethyl-8-[[(1R)-1-[3-(1,1-difluoro-2-hydroxy-ethyl)phenyl]ethyl]amino]pyrrolo [2,3-g]phthalazin-2-one]",10 nM
10,"Cc1c([C@@H](C)Nc2nnc(C)c3cc4c(cc23)N(C)C(=O)C42CCOCC2)cccc1C(F)(F)C(C)(C)O [Compound 104, 1,5-dimethyl-8-[[(1R)-1-[3-(1,1-difluoro-2-hydroxy-2-methyl-propyl)-2-methyl-phenyl]ethyl]amino]spiro[pyrrolo[2,3-g]phthalazine-3,4′-tetrahydropyran]-2-one]",24.5 nM
11,"COCC1(C)C(=O)N(C)c2cc3c(N[C@H](C)c4cccc(C(F)(F)CO)c4C)nnc(C)c3cc21 (stereo partly drawn) [Compound 105, 8-[[(1R)-1-[3-(1,1-difluoro-2-hydroxy-ethyl)-2-methyl-phenyl]ethyl]amino]-3-(methoxymethyl)-1,3,5-trimethyl-pyrrolo[3,2-g]phthalazin-2-one]",10.7 nM
12,"Cc1nnc(N[C@H](C)c2cc(F)cc(C(F)(F)CO)c2)c2cc3c(cc12)C(C)(C)C(=O)N3C [Compound 107, 1,3,3,5-tetramethyl-8-[[(1R)-1-[3-(1,1-difluoro-2-hydroxy-ethyl)-5-fluoro-phenyl]ethyl]amino]pyrrolo[2,3-g]phthalazin-2-one]",18.6 nM
13,"Cc1c([C@@H](C)Nc2nnc(C)c3cc4c(cc23)N(C)C(=O)C4(C)C)cccc1C(F)(F)C(C)(C)O [Compound 108, 1,3,3,5-tetramethyl-8-[[(1R)-1-[3-(1,1-difluoro-2-hydroxy-2-methyl-propyl)-2-methyl-phenyl]ethyl]amino]pyrrolo[2,3-g]phthalazin-2-one]",10.5 nM
14,"Cc1nnc(N[C@H](C)c2cccc(C(F)(F)CO)c2F)c2cc3c(cc12)C(C)(C)C(=O)N3C [Compound 109, 1,3,3,5-tetramethyl-8-[[(1R)-1-[3-(1,1-difluoro-2-hydroxy-ethyl)-2-fluoro-phenyl]ethyl]amino]pyrrolo[2,3-g]phthalazin-2-one]",7.08 nM
15,"Cc1nnc(N[C@H](C)c2cccc(C(F)(F)CO)c2F)c2cc3c(cc12)C(C)(C)C(=O)N3C(C)C [Compound 110, 1-isopropyl-3,3,5-trimethyl-8-[[(1R)-1-[3-(1,1-difluoro-2-hydroxy-ethyl)-2-fluoro-phenyl]ethyl]amino]pyrrolo[2,3-g]phthalazin-2-one]",7.08 nM
16,"Cc1nnc(N[C@H](C)c2cccc(C(F)(F)C(C)(C)O)c2F)c2cc3c(cc12)C(C)(C)C(=O)N3C(C)C [Compound 111, 1-isopropyl-3,3,5-trimethyl-8-[[(1R)-1-[3-(1,1-difluoro-2-hydroxy-2-methyl-propyl)-2-fluoro-phenyl]ethyl]amino]pyrrolo[2,3-g]phthalazin-2-one]",7.41 nM

# The next lines start with the values.
row,IC50,SMILES
1,8.91 nM,"Cc1nnc(N[C@H](C)c2cccc(C(F)(F)C(C)(C)O)c2)c2cc3c(cc12)C1(CCOCC1)C(=O)N3C [Compound 84, 1,5-dimethyl-8-[[(1R)-1-[3-(1,1-difluoro-2-hydroxy-2-methyl-propyl)phenyl]ethyl]amino]spiro [pyrrolo[2,3-g]phthalazine-3,4′-tetrahydropyran]-2-one]"
2,8.32 nM,"Cc1c([C@@H](C)Nc2nnc(C)c3cc4c(cc23)n(C(C)C)c(=O)n4C)cccc1C(F)(F)CO [Compound 85, 3-isopropyl-1,8-dimethyl-5-[[(1R)-1-[3-(1,1-difluoro-2-hydroxy-ethyl)-2-methyl-phenyl]ethyl]amino]imidazo[4,5-g]phthalazin-2-one]"
3,7.76 nM,"Cc1nnc(N[C@H](C)c2cccc(C(F)(F)CO)c2)c2cc3c(cc12)C1(CCOCC1)C(=O)N3C [Compound 88, 1,5-dimethyl-8-[[(1R)-1-[3-(1,1-difluoro-2-hydroxy-ethyl)phenyl]ethyl]amino]spiro [pyrrolo[2,3-g]phthalazine-3,4′-tetrahydropyran]-2-one]"
4,10.7 nM,"COC1(C)C(=O)N(C)c2cc3c(N[C@H](C)c4cccc(C(F)(F)C(C)(C)O)c4)nnc(C)c3cc21 (stereo partly drawn) [Compound 90, 3-methoxy-1,3,5-trimethyl-8-[[(1R)-1-[3-(1,1-difluoro-2-hydroxy-2-methyl-propyl)phenyl]ethyl]amino]pyrrolo [2,3-g]phthalazin-2-one]"
5,9.77 nM,COC1(C)C(=O)N(C)c2cc3c(N[C@H](C)c4cccc(C(F)(F)CO)c4C)nnc(C)c3cc21 (stereo partly shown) [Compound 92]
6,8.91 nM,"COCC1(C)C(=O)N(C)c2cc3c(N[C@H](C)c4cccc(C(F)(F)CO)c4F)nnc(C)c3cc21 (stereo partly drawn) [Compound 94, 8-[[(1R)-1-[3-(1,1-difluoro-2-hydroxy-ethyl)-2-fluoro-phenyl]ethyl]amino]-3-(methoxymethyl)-1,3,5-trimethyl-pyrrolo[3,2-g]phthalazin-2-one]"
7,13.2 nM,"Cc1c([C@@H](C)Nc2nnc(C)c3cc4c(cc23)C(C)(C)C(=O)N4C)cccc1C(F)(F)CO [Compound 97, 1,3,3,8-tetramethyl-5-[[(1R)-1-[3-(1,1-difluoro-2-hydroxy-ethyl)-2-methyl-phenyl]ethyl]amino]pyrrolo[3,2-g]phthalazin-2-one]"
8,8.13 nM,"Cc1nnc(N[C@H](C)c2cccc(C(F)(F)CO)c2F)c2cc3c(cc12)N(C)C(=O)C3(C)C [Compound 99, 1,3,3,8-tetramethyl-5-[[(1R)-1-[3-(1,1-difluoro-2-hydroxy-ethyl)-2-fluoro-phenyl]ethyl]amino]pyrrolo[3,2-g]phthalazin-2-one]"
9,8.32 nM,"COC1(C)C(=O)N(C)c2cc3c(N[C@H](C)c4cccc(C(F)(F)C(C)(C)O)c4C)nnc(C)c3cc21 (stereo partly drawn) [Compound 102, 3-methoxy-1,3,5-trimethyl-8-[[(1R)-1-[3-(1,1-difluoro-2-hydroxy-2-methyl-propyl)-2-methyl-phenyl]ethyl]amino]pyrrolo[2,3-g]phthalazin-2-one]"
10,7.94 nM,"Cc1nnc(N[C@H](C)c2cccc(C(F)(F)C(C)(C)O)c2)c2cc3c(cc12)n(C)c(=O)n3C(C)(C)C [Compound 103, 3-tert-butyl-1,8-dimethyl-5-[[(1R)-1-[3-(1,1-difluoro-2-hydroxy-2-methyl-propyl)phenyl]ethyl]amino]imidazo [4,5-g]phthalazin-2-one]"
11,12 nM,"COCC1(C)C(=O)N(C)c2cc3c(N[C@H](C)c4cccc(C(F)(F)CO)c4)nnc(C)c3cc21 (stereo partly drawn) [Compound 106, 8-[[(1R)-1-[3-(1,1-difluoro-2-hydroxy-ethyl)phenyl]ethyl]amino]-3-(methoxymethyl)-1,3,5-trimethyl-pyrrolo[3,2-g]phthalazin-2-one]"
